In the supplement of paper PMC10307832:

Experiments:
Assay in all cases: relative viability (nuclei count vs DMSO), 5 days (fraction); higher = more cells survive
[1] = compound: CCCS(=O)(=O)Nc1ccc(F)c(C(=O)c2c[nH]c3ncc(-c4ccc(Cl)cc4)cc23)c1F [Vemurafenib] + CS(=O)(=O)CCNCc1ccc(-c2ccc3ncnc(Nc4ccc(OCc5cccc(F)c5)c(Cl)c4)c3c2)o1 [Lapatinib] (partner 2 µM)
In short: (§1)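 Lung cancer cell lines were pin-tool dosed in 1536-well plates on the day after seeding, with either a lone drug or a fixed anchor-drug dose plus five library-drug doses (not always all listed) in √10 steps. Nuclei were counted on 4× images after 5 days. Relative viability is the ratio of treated-well to vehicle-well nuclei counts, with each value a median of duplicate plates.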

[2] = compound: COc1cccc2cc(-c3nc([C@H]4CC[C@H](C(=O)O)CC4)n4ncnc(N)c34)[nH]c12 [OSI-027] + N=C(N)NC(=N)NCCc1ccccc1 [Phenformin] (partner 250 µM)
In short: as §1

[3] = compound: CCCS(=O)(=O)Nc1ccc(F)c(C(=O)c2c[nH]c3ncc(-c4ccc(Cl)cc4)cc23)c1F [Vemurafenib] + C[C@@H](Oc1cc(-c2cnn(C3CCNCC3)c2)cnc1N)c1c(Cl)ccc(F)c1Cl [Crizotinib] (partner 1 µM)
In short: as §1

[4] = compound: CCCS(=O)(=O)Nc1ccc(F)c(C(=O)c2c[nH]c3ncc(-c4ccc(Cl)cc4)cc23)c1F [Vemurafenib] + C[C@]1(O)C[C@@H](c2nc(-c3ccc4ccc(-c5ccccc5)nc4c3)c3c(N)nccn32)C1 [Linsitinib] (partner 1 µM)
In short: as §1

## UMC-11
[1]; first compound 0.03162 µM
  relative viability: 0.698
[1]; first compound 0.1 µM
  relative viability: 0.956
[1]; first compound 0.3162 µM
  relative viability: 0.73
[1]; first compound 1 µM
  relative viability: 0.625
[2]; first compound 0.01 µM
  relative viability: 0.337
[2]; first compound 0.03162 µM
  relative viability: 0.366
[2]; first compound 0.1 µM
  relative viability: 0.311
[2]; first compound 0.3162 µM
  relative viability: 0.311
[2]; first compound 1 µM
  relative viability: 0.274
[3]; first compound 0.03162 µM
  relative viability: 0.638
[3]; first compound 0.1 µM
  relative viability: 0.616
[3]; first compound 0.3162 µM
  relative viability: 0.629
[3]; first compound 1 µM
  relative viability: 0.633
[4]; first compound 0.03162 µM
  relative viability: 0.945
[4]; first compound 0.1 µM
  relative viability: 0.989
[4]; first compound 0.3162 µM
  relative viability: 1.06
[4]; first compound 1 µM
  relative viability: 0.949
